Measurements taken from patent US8415342B2, “Besifloxacin ophthalmic composition for the treatment or control of infection” (Bausch & Lomb Incorporated, priority 2008, dated 2013).
≈ marks a conversion by molar mass, not a printed value. Where two headings read alike, the source gives them in different places.

What was measured:
Type in all cases: cell-based
[1] = system: Staphylococcus saprophyticus; experiment: MIC, CLSI broth microdilution, clinical isolates; settings: Staphylococcus saprophyticus (N = 101)
Staphylococcus hominis = experiment: MIC, CLSI broth microdilution, clinical isolates; settings: Staphylococcus hominis (N = 50)
Moraxella catarrhalis = experiment: MIC, CLSI broth microdilution, clinical isolates; settings: Moraxella catarrhalis (N = 101)
Staphylococcus warneri = experiment: MIC, CLSI broth microdilution, clinical isolates; settings: Staphylococcus warneri (N = 50)
[2] = system: Staphylococcus epidermidis; experiment: MIC, CLSI broth microdilution, clinical isolates; settings: for MIC50: Staphylococcus epidermidis
[3] = system: Staphylococcus haemolyticus; experiment: MIC, CLSI broth microdilution, clinical isolates; settings: Staphylococcus haemolyticus (N = 101)
[4] = system: Staphylococcus lugdunensis; experiment: MIC, CLSI broth microdilution, clinical isolates; settings: Staphylococcus lugdunensis (N = 15)
Staphylococcus aureus = experiment: MIC, CLSI broth microdilution, clinical isolates; settings: for MIC50 / MIC90: Staphylococcus aureus
Morganella morganii = experiment: MIC, CLSI broth microdilution, clinical isolates; settings: Morganella morganii (N = 51)
Klebsiella oxytoca = experiment: MIC, CLSI broth microdilution, clinical isolates; settings: Klebsiella oxytoca (N = 50)
Citrobacter koseri = experiment: MIC, CLSI broth microdilution, clinical isolates; settings: Citrobacter koseri (N = 100)
Anaerobic Bacteria = experiment: MIC against anaerobic bacteria (Table 7); settings: for % S (percent of susceptible isolates): CLSI breakpoints
Streptococcus pyogenes = experiment: MIC, CLSI broth microdilution, clinical isolates; settings: Streptococcus pyogenes (N = 101)
[5] = system: Lancefield group C, F, G streptococci; experiment: MIC, CLSI broth microdilution, clinical isolates; settings: G streptococci (N = 50)
Streptococcus pneumoniae = experiment: MIC, CLSI broth microdilution, clinical isolates
Viridans streptococci = experiment: MIC, CLSI broth microdilution, clinical isolates; settings: Viridans streptococci (N = 156)
Streptococcus agalactiae = experiment: MIC, CLSI broth microdilution, clinical isolates; settings: Streptococcus agalactiae (N = 100)
[6] = Staphylococcus epidermidis (CNS, N = 6)
[7] = Staphylococcus epidermidis (CS, N = 9)
[8] = Staphylococcus epidermidis (MRSE, N = 9)
[9] = Staphylococcus epidermidis (MSSE, N = 6)
[10] = Staphylococcus epidermidis (all phenotypes, N = 15)
[11] = Staphylococcus aureus (CNS, N = 16)
[12] = Staphylococcus aureus (CS, N = 14)
[13] = Staphylococcus aureus (MSSA, N = 19)
[14] = Staphylococcus aureus (all phenotypes, N = 30)
[15] = MRSA, Staphylococcus aureus (MRSA, N = 11)
[16] = MSSA, Staphylococcus aureus (MSSA, N = 19)
[17] = Bacteroides fragilis, Bacteroides fragilis (N = 20), read-out: MIC50
[18] = Bacteroides fragilis, Bacteroides fragilis (N = 20), read-out: MIC90
[19] = Clostridium perfringens (N = 21)
[20] = Clostridium perfringens, Clostridium perfringens (N = 21)
[21] = Fusobacterium spp. (N = 21), read-out: MIC50
[22] = Fusobacterium spp. (N = 21), read-out: MIC90
[23] = Propionibacterium acnes (N = 21)
[24] = Streptococcus pneumoniae (PISP, N = 2)
[25] = Streptococcus pneumoniae (PSSP, N = 31)
[26] = Streptococcus pneumoniae (all phenotypes, N = 35)

Compound: Cc1onc(-c2ccccc2)c1C(=O)N[C@@H]1C(=O)N2[C@@H]1SC(C)(C)[C@@H]2C(=O)O [Oxacillin]
- % S [1]: 9.9%
- MIC50 [1]: 0.5 µg/mL (≈ 1.25 µM)
- MIC90 [1]: 1 µg/mL (≈ 2.49 µM)
- % S (Staphylococcus hominis): 16.0%
- MIC50 (Staphylococcus hominis): > 8 µg/mL
- MIC90 (Staphylococcus hominis): > 8 µg/mL
- MIC50 (Moraxella catarrhalis): 4 µg/mL (≈ 9.96 µM)
- MIC90 (Moraxella catarrhalis): 8 µg/mL (≈ 19.9 µM)
- % S (Staphylococcus warneri): 46.0%
- MIC50 (Staphylococcus warneri): 0.5 µg/mL (≈ 1.25 µM)
- MIC90 (Staphylococcus warneri): > 8 µg/mL
- % S [2, 6]: 50.0%
- MIC Range [2, 6]: 0.12 to 4 µg/mL
- % S [2, 7]: 55.6%
- MIC Range [2, 7]: ≦0.06-2 μg/mL
- % S [2, 8]: 0.0%
- MIC Range [2, 8]: 1 to 4 µg/mL
- % S [2, 9]: 100.0%
- MIC Range [2, 9]: ≦0.06-0.12 μg/mL
- % S [2, 10]: 40.0%
- MIC90 [2, 10]: 2 µg/mL (≈ 4.98 µM)
- MIC Range [2, 10]: ≦0.06-4 μg/mL
- MIC50 ([2]; MRSE, Staphylococcus epidermidis (MRSE, N = 9)): 1 µg/mL (≈ 2.49 µM)
- MIC50 [2, 6]: 1 µg/mL (≈ 2.49 µM)
- MIC50 [2, 7]: 0.12 µg/mL (≈ 0.299 µM)
- MIC50 [2, 9]: ≤ 0.06 µg/mL
- MIC50 [2, 10]: 1 µg/mL (≈ 2.49 µM)
- % S [3]: 31.7%
- MIC50 [3]: > 8 µg/mL
- MIC90 [3]: > 8 µg/mL
- % S [4]: 60.0%
- MIC50 [4]: 0.5 µg/mL (≈ 1.25 µM)
- MIC90 [4]: > 8 µg/mL
- % S (Staphylococcus aureus; [11]): 50.0%
- % S (Staphylococcus aureus; [12]): 78.6%
- % S (Staphylococcus aureus; Staphylococcus aureus (MRSA, N = 11)): 0.0%
- % S (Staphylococcus aureus; [13]): 100.0%
- MIC Range (Staphylococcus aureus; [13]): 0.12 to 0.5 µg/mL
- % S (Staphylococcus aureus; [14]): 63.3%
- MIC50 (Staphylococcus aureus; [15]): > 8 µg/mL
- MIC90 (Staphylococcus aureus; [15]): > 8 µg/mL
- MIC50 (Staphylococcus aureus; [16]): 0.25 µg/mL (≈ 0.623 µM)
- MIC90 (Staphylococcus aureus; [16]): 0.5 µg/mL (≈ 1.25 µM)
- MIC50 (Staphylococcus aureus; [11]): 0.5 µg/mL (≈ 1.25 µM)
- MIC90 (Staphylococcus aureus; [11]): > 8 µg/mL
- MIC50 (Staphylococcus aureus; [12]): 0.25 µg/mL (≈ 0.623 µM)
- MIC90 (Staphylococcus aureus; [12]): > 8 µg/mL
- MIC50 (Staphylococcus aureus; [14]): 0.25 µg/mL (≈ 0.623 µM)
- MIC90 (Staphylococcus aureus; [14]): > 8 µg/mL

Compound: CC(C)(O/N=C(\C(=O)N[C@@H]1C(=O)N2C(C(=O)[O-])=C(C[n+]3ccccc3)CS[C@H]12)c1csc(N)n1)C(=O)O [Ceftazidime]
- % S (Morganella morganii): 82.4%
- MIC50 (Morganella morganii): 0.12 µg/mL (≈ 0.22 µM)
- MIC90 (Morganella morganii): 16 µg/mL (≈ 29.3 µM)
- % S (Klebsiella oxytoca): 100.0%
- MIC50 (Klebsiella oxytoca): 0.12 µg/mL (≈ 0.22 µM)
- MIC90 (Klebsiella oxytoca): 0.5 µg/mL (≈ 0.915 µM)
- MIC Range (Klebsiella oxytoca): 0.03 to 1 µg/mL
- % S (Citrobacter koseri): 100.0%
- MIC50 (Citrobacter koseri): 0.12 µg/mL (≈ 0.22 µM)
- MIC90 (Citrobacter koseri): 0.5 µg/mL (≈ 0.915 µM)
- MIC Range (Citrobacter koseri): 0.06 to 4 µg/mL

Compound: Cc1ncc([N+](=O)[O-])n1CCO [Metronidazole]
- MIC50 (Anaerobic Bacteria): 4 µg/mL (≈ 23.4 µM)
- MIC90 (Anaerobic Bacteria): 4 µg/mL (≈ 23.4 µM)
- MIC Range (Anaerobic Bacteria; Bacteroides fragilis (N = 20)): 2-2 μg/mL
- % S (percent of susceptible isolates) (Anaerobic Bacteria; Bacteroides fragilis (N = 20)): 100.0%
- MIC50 (Anaerobic Bacteria; [17]): 2 µg/mL (≈ 11.7 µM)
- MIC90 (Anaerobic Bacteria; [18]): 2 µg/mL (≈ 11.7 µM)
- MIC Range (Anaerobic Bacteria; [19]): 1 to 4 µg/mL
- % S (percent of susceptible isolates) (Anaerobic Bacteria; [19]): 100.0%
- MIC50 (Anaerobic Bacteria; [20]): 2 µg/mL (≈ 11.7 µM)
- MIC90 (Anaerobic Bacteria; [20]): 4 µg/mL (≈ 23.4 µM)
- MIC50 (Anaerobic Bacteria; Cutibacterium acnes): > 16 µg/mL
- MIC90 (Anaerobic Bacteria; Cutibacterium acnes): > 16 µg/mL
- MIC Range (Anaerobic Bacteria; Fusobacterium spp. (N = 21)): ≦0.12-2 μg/mL
- % S (percent of susceptible isolates) (Anaerobic Bacteria; Fusobacterium spp. (N = 21)): 100.0%
- MIC50 (Anaerobic Bacteria; [21]): 0.25 µg/mL (≈ 1.46 µM)
- MIC90 (Anaerobic Bacteria; [22]): 1 µg/mL (≈ 5.84 µM)
- MIC Range (Anaerobic Bacteria; Prevotella spp. (N = 20)): 0.25 to 8 µg/mL
- % S (percent of susceptible isolates) (Anaerobic Bacteria; Prevotella spp. (N = 20)): 100.0%
- % S (percent of susceptible isolates) (Anaerobic Bacteria; [23]): 0.0%

Compound: CCC[C@@H]1C[C@@H](C(=O)N[C@@H]([C@H]2O[C@H](SC)[C@H](O)[C@@H](O)[C@H]2O)[C@H](C)Cl)N(C)C1 [Clindamycin]
- MIC50 (Anaerobic Bacteria): ≤ 0.03 µg/mL
- MIC90 (Anaerobic Bacteria): > 8 µg/mL
- % S (percent of susceptible isolates) (Anaerobic Bacteria; Bacteroides fragilis (N = 20)): 65.0%
- MIC50 (Anaerobic Bacteria; [17]): 2 µg/mL (≈ 4.71 µM)
- MIC90 (Anaerobic Bacteria; [18]): > 8 µg/mL
- MIC Range (Anaerobic Bacteria; [19]): 0.06 to 4 µg/mL
- % S (percent of susceptible isolates) (Anaerobic Bacteria; [19]): 85.7%
- MIC50 (Anaerobic Bacteria; [20]): 2 µg/mL (≈ 4.71 µM)
- MIC90 (Anaerobic Bacteria; [20]): 4 µg/mL (≈ 9.41 µM)
- MIC50 (Anaerobic Bacteria; Cutibacterium acnes): 0.06 µg/mL (≈ 0.141 µM)
- MIC90 (Anaerobic Bacteria; Cutibacterium acnes): 0.12 µg/mL (≈ 0.282 µM)
- MIC Range (Anaerobic Bacteria; Fusobacterium spp. (N = 21)): 0.06 to 8 µg/mL
- % S (percent of susceptible isolates) (Anaerobic Bacteria; Fusobacterium spp. (N = 21)): 95.2%
- MIC50 (Anaerobic Bacteria; [21]): 0.06 µg/mL (≈ 0.141 µM)
- MIC90 (Anaerobic Bacteria; [22]): 2 µg/mL (≈ 4.71 µM)
- % S (percent of susceptible isolates) (Anaerobic Bacteria; Prevotella spp. (N = 20)): 85.0%
- MIC Range (Anaerobic Bacteria; [23]): ≦0.03-2 μg/mL
- % S (percent of susceptible isolates) (Anaerobic Bacteria; [23]): 100.0%

Compound: Penicillin
- % S (Streptococcus pyogenes): 100.0%
- MIC50 (Streptococcus pyogenes): ≦0.015 μg/mL
- MIC90 (Streptococcus pyogenes): ≦0.015 μg/mL
- MIC Range (Streptococcus pyogenes): ≦0.015-0.06 μg/mL
- % S [5]: 100.0%
- MIC50 [5]: ≦0.015 μg/mL
- MIC90 [5]: 0.06 µg/mL
- MIC Range [5]: ≦0.015-0.06 μg/mL
- % S (Streptococcus pneumoniae; [24]): 0.0%
- MIC Range (Streptococcus pneumoniae; [24]): 4-4 μg/mL
- % S (Streptococcus pneumoniae; Streptococcus pneumoniae (PRSP, N = 2)): 0.0%
- % S (Streptococcus pneumoniae; [25]): 100.0%
- MIC50 (Streptococcus pneumoniae; [25]): ≦0.015 μg/mL
- MIC90 (Streptococcus pneumoniae; [25]): 0.25 µg/mL
- MIC Range (Streptococcus pneumoniae; [25]): ≦0.015-0.5 μg/mL
- % S (Streptococcus pneumoniae; [26]): 88.6%
- MIC50 (Streptococcus pneumoniae; [26]): ≦0.015 μg/mL
- MIC90 (Streptococcus pneumoniae; [26]): 4 µg/mL
- % S (Viridans streptococci): 76.3%
- MIC50 (Viridans streptococci): 0.06 µg/mL
- MIC90 (Viridans streptococci): 1 µg/mL
- % S (Streptococcus agalactiae): 100.0%
- MIC50 (Streptococcus agalactiae): 0.03 µg/mL
- MIC90 (Streptococcus agalactiae): 0.06 µg/mL
- MIC Range (Streptococcus agalactiae): ≦0.015-0.06 μg/mL
